Consider one molecule from patent US9809563B2 (GIFU University, priority 2014, dated 2017).

Structures can show the parent of a compound that is named as a salt. Where two headings read alike, the source gives them in different places.

The conditions of series [1]: male, Crl:CD (SD), rat, in vivo, po, 1 mg/kg.
For series [2] the following is noted: rat, in vivo.

As to `O=C(CN1CCCC1)Nc1ccc(C(c2ccc(NC(=O)CN3CCCC3)cc2)C2CCCCC2)cc1` [maleic acid salt, N,N′-[(cyclohexylmethylene)di-4,1-phenylene]bis[2-(1-pyrrolidinyl)acetamide] maleate], the “tmax Time required to reach maximum radioactivity concentration” value in series [1] is given as 4.0 h. In series [2], the “Concentrations of radioactivity in the cerebrum and cerebellum compared with blood” value is “higher than those in the blood”; the “Radioactivity in tissues relative to plasma” value is recorded as 100 fold. Also, in series [2] (iv, 1 mg/kg), the “Blood concentration of radioactivity/plasma concentration of radioactivity (RB)” value is 10.18, the “Distribution to blood cells (T)” value stood at 93.7%, the “Radioactivity concentration Blood (Cb)” value is on record as 39.7 ng eq./mL and the “Radioactivity concentration Plasma (Cp)” value was determined as 3.9 ng eq./mL. Also, in series [2] (iv, 10 mg/kg), the “Blood concentration of radioactivity/plasma concentration of radioactivity (RB)” value is 19.52, the “Distribution to blood cells (T)” value is 96.5%, the “Radioactivity concentration Blood (Cb)” value amounted to 407.9 ng eq./mL and the “Radioactivity concentration Plasma (Cp)” value amounted to 20.9 ng eq./mL. Further, in series [2] (po, 1 mg/kg), the “Blood concentration of radioactivity/plasma concentration of radioactivity (RB)” value came out at 4.55, the “Distribution to blood cells (T)” value is on record as 86.0%, the “Radioactivity concentration Blood (Cb)” value amounted to 10.0 ng eq./mL and the “Radioactivity concentration Plasma (Cp)” value is given as 2.2 ng eq./mL.
